Data from article PMC10458253, “Unraveling the In Vitro Toxicity Profile of Psychedelic 2C Phenethylamines and Their N-Benzylphenethylamine (NBOMe) Analogues” (Pharmaceuticals, 2023).

Legend:
Type in all cases: cell-based
[1] = system: differentiated SH-SY5Y cells; assay: Resazurin reduction cytotoxicity assay, differentiated SH-SY5Y; conditions: 24 h; for Top (maximal effect): maximum cell death of fitted curve; for EC50: Homo sapiens, cell death curves 0–1500 µM, read-out: EC50 (half-maximum-effect concentration)
Experimental: SH-SY5Y cells were acquired from the American Type Culture Collection (Manassas, VA, USA). Cells were cultured in 25 cm^2 flasks using DMEM—high glucose supplemented with 10% heat-inactivated FBS, 1% MEM non-essential amino acids and 1% penicillin/streptomycin mixture, and maintained in a 5% CO2–95% air atmosphere, at 37 °C, until 80% confluence. Cells were routinely subcultured using trypsin-EDTA and, to avoid phenotypic alterations, were always used between passages 23 and 29. In all experiments, the cells were seeded at a density of 25,000 cells/cm^2. As previously described, to achieve a dopaminergic neuronal phenotype, the cells were seeded in a complete DMEM medium containing 10 μM retinoic acid and, after 3 days, 80 nM TPA was added to the cultures for another 3 days.
(§1) Neutral red uptake and resazurin reduction assays were performed after exposure of differentiated SH-SY5Y and HepG2 cells to the drugs under study. To obtain a concentration–response curve, a broad concentration range (0–2000 µM) was investigated, and cytotoxicity was evaluated 24 h after exposure in 96-well cell culture plates. As previously described, neutral red uptake assay is based on the incorporation of neutral red dye into the lysosomes of viable cells and the amount of dye incorporated represents the cells’ lysosomal functionality, and resazurin reduction assay is based on the irreversible reduction of resazurin dye to the fluorescent resorufin product by metabolically active cells.
(§2) Briefly, 24 h after being exposed to different concentrations of the compounds, differentiated SH-SY5Y cells were incubated with either neutral red (50 µg/mL) or resazurin (10 µg/mL) solutions for 90 min, at 37 °C, in a 5% CO2–95% air atmosphere. For HepG2 cells, 24 h after the exposure to the tested drugs, the cells were incubated with either neutral red (50 µg/mL) or resazurin (10 µg/mL) solutions for 45 and 60 min, respectively, at 37 °C, in a 5% CO2–95% air atmosphere.
(§3) In the neutral red uptake assay, at the end of the incubation period, the cell culture medium was removed and a solution of absolute ethyl alcohol/distilled water (1:1) with 5% acetic acid was added to extract the dye absorbed only by the viable cells. The absorbance was measured at 540 nm in a multi-well plate reader (PowerWaveX BioTek Instruments, Winooski, VT, USA). In the resazurin assay, at the end of the incubation period, the fluorescence was measured at 530 nm excitation and 590 nm emission wavelengths in a multi-well plate reader (PowerWaveX BioTek Instruments, Winooski, VT, USA).
(§4) The results were expressed as a percentage of control cells. At least four independent experiments were performed, in triplicate. For differentiated SH-SY5Y cells, the neutral red uptake assay was identified as the most sensitive assay and, therefore, used for the subsequent experiments. On the other hand, for HepG2 cells, the resazurin reduction assay was identified as the most sensitive assay and, therefore, used for the subsequent experiments.

[2] = system: HepG2 cells; assay: Neutral red uptake cytotoxicity assay, HepG2; conditions: HepG2, 24 h; for Top (maximal effect): maximum cell death of fitted curve; for EC50: Homo sapiens, cell death curves 0–2000 µM, read-out: EC50 (half-maximum-effect concentrations)
Experimental: (§5) HepG2 cells were acquired from the American Type Culture Collection (Manassas, VA, USA). Cells were cultured in 75 cm^2 flasks using DMEM—high glucose supplemented with a 10% heat inactivated FBS and 1% penicillin/streptomycin mixture, and maintained in a 5% CO2–95% air atmosphere, at 37 °C, until 80% confluence. Cells were routinely subcultured using trypsin-EDTA and, to avoid phenotypic alterations, used between passages 16 and 22. In all experiments, the cells were seeded at a density of 250,000 cells/cm^2 and used 24 h after seeding.
as §1, §2, §3, §4

[3] = system: HepG2 cells; assay: Resazurin reduction cytotoxicity assay, HepG2; conditions: HepG2, 24 h; for Top (maximal effect): maximum cell death of fitted curve; for EC50: Homo sapiens, cell death curves 0–2000 µM, read-out: EC50 (half-maximum-effect concentrations)
Experimental: as §5, §1, §2, §3, §4

[4] = system: differentiated SH-SY5Y cells; assay: Effect of CYP inhibitors on drug cytotoxicity (neutral red uptake), differentiated SH-SY5Y; conditions: 24 h, drug concentrations as given in the source; for change of neutral red uptake with ketoconazole vs drug alone: 10 μM ketoconazole (CYP3A4 inhibitor); for change of neutral red uptake with quinidine vs drug alone: 10 μM quinidine (CYP2D6 inhibitor); for change of neutral red uptake with ABT vs drug alone: 1000 μM ABT (non-selective CYP inhibitor)
Experimental: Differentiated SH-SY5Y cells were incubated with the drugs in the presence or absence of different CYP inhibitors: 1000 μM ABT, a non-selective CYP inhibitor, 10 μM quinidine, a specific CYP2D6 inhibitor, or 10 μM ketoconazole, a specific CYP3A4 inhibitor.
(§6) CYP inhibition assay was used to evaluate the drugs’ potential to inhibit drug-metabolizing enzymes. Accordingly, SH-SY5Y and HepG2 cells were seeded in 96-well cell culture plates and pre-incubated with 1000 µM ABT—a non-isoform specific CYP450 inhibitor, 10 µM quinidine—a CYP2D6 inhibitor or 1 µM ketoconazole—a CYP3A4 inhibitor. After 1 h, the drugs (0–500 µM) were co-incubated with the inhibitors for 24 h, at 37 °C, in a 5% CO2–95% air atmosphere. The drugs’ cytotoxicity was then assessed through the neutral red uptake assay for differentiated SH-SY5Y cells, and through the resazurin reduction assay for HepG2 cells, and the results were expressed as percentage of control cells. At least four independent experiments were performed, in triplicate.

[5] = system: HepG2 cells; assay: Effect of CYP inhibitors on drug cytotoxicity (resazurin reduction), HepG2; conditions: HepG2, 24 h, drug concentrations as given in the source; for change of resazurin reduction with ketoconazole vs drug alone: 1 μM ketoconazole; for change of resazurin reduction with ABT vs drug alone: 1000 μM ABT; for change of resazurin reduction with quinidine vs drug alone: 10 μM quinidine
Experimental: Analogously to the studies performed in the neuronal model, the impact of the CYP-mediated metabolism on the cytotoxicity of the tested drugs was also evaluated, in HepG2 cells, 24 h after exposure to the drugs in the presence or absence of different CYP inhibitors: 1000 μM ABT, 10 μM quinidine or 1 μM ketoconazole.
as §6

[6] = system: differentiated SH-SY5Y cells; assay: Effect of MAO inhibitors on drug cytotoxicity (neutral red uptake), differentiated SH-SY5Y; conditions: 24 h; for change of drug cytotoxicity with rasagiline (neutral red uptake): 1 µM rasagiline (MAO-B inhibitor), drug concentrations as given in the source; for change of drug cytotoxicity with clorgyline (neutral red uptake): 1 µM clorgyline (MAO-A inhibitor), drug 50-250 µM
Experimental: MAO inhibition was used to elucidate the impact of MAO-A and MAO-B in the cytotoxicity of the tested drugs. […] The drugs’ cytotoxicity was then assessed through the neutral red uptake assay and the results were expressed as percentage of control cells. At least four independent experiments were performed, in triplicate.

Structure (SMILES)	Bottom (baseline) [1]	Hill Slope [1]	Top (maximal effect) [1]	EC50 [1] [µM]	Bottom (baseline) [2]	Hill Slope [2]	Top (maximal effect) [2]	EC50 [2] [µM]	Bottom (baseline) [3]	Hill Slope [3]	Top (maximal effect) [3]	EC50 [3] [µM]	change of neutral red uptake with ketoconazole vs drug alone [4]	change of neutral red uptake with quinidine vs drug alone [4]	change of resazurin reduction with ketoconazole vs drug alone [5]	change of resazurin reduction with ABT vs drug alone [5]	change of drug cytotoxicity with rasagiline (neutral red uptake) [6]	change of neutral red uptake with ABT vs drug alone [4]	change of resazurin reduction with quinidine vs drug alone [5]	change of drug cytotoxicity with clorgyline (neutral red uptake) [6]	other results
COc1cc(CCN)c(OC)cc1Br [2C-B, 4-Bromo-2,5-dimethoxy-β-phenethylamine]	7.210	1.670	83.95	225	5.433	5.413	95.01	257	1.072	3.731	89.29	206	small but significant decrease in neutral red uptake	significant decrease in the neutral red uptake	significant decrease in the cells’ metabolic capacity	small but significant decrease in resazurin reduction	significantly increased the cytotoxicity	–	–	–	–
COc1cc([N+](=O)[O-])c(OC)cc1CCN [2C-N, 2,5-dimethoxy-4-nitrophenethylamine]	4.440	1.627	≈100	832	7.328	4.340	≈100	960	0.2545	2.334	≈100	834	–	significant decrease in the neutral red uptake	significant increase in the metabolic capacity of cells	–	significantly increased the cytotoxicity	significant increase in neutral red uptake	significant increase in the metabolic capacity of cells	–	–
COc1cc(CCNCc2ccccc2OC)c(OC)cc1Br [25B-NBOMe, 4-Bromo-2,5-dimethoxy-N-(2-methoxybenzyl)-β-phenethylamine]	6.827	4.464	80.62	58.4	4.279	2.442	≈100	34.7	4.552	3.079	89.49	32.8	–	significant decrease in the neutral red uptake	significant decrease in the cells’ metabolic capacity	small but significant decrease in resazurin reduction	significant increase in cell viability	–	–	–	–
COc1cc([N+](=O)[O-])c(OC)cc1CCNCc1ccccc1OC [25N-NBOMe, 4-Nitro-2-dimethoxy-N-(2-methoxybenzyl)-β-phenethylamine]	0.9223	4.692	80.10	154	7.254	6.518	94.13	115	3.464	5.089	87.26	99.7	small but significant decrease in neutral red uptake	significant decrease in the neutral red uptake	no significant changes in resazurin reduction	small but significant decrease in resazurin reduction	significant increase in cell viability	significant decrease in neutral red uptake	no significant changes in resazurin reduction	significantly increased the cytotoxicity	–
COc1cc(CCN)cc(OC)c1OC.Cl [Mescaline, 3,4,5-Trimethoxyphenethylamine hydrochloride]	–	–	–	–	–	–	–	–	–	–	–	–	small but significant decrease in neutral red uptake	significant decrease in the neutral red uptake	No significant changes	No significant changes	–	–	No significant changes	significantly increased the cytotoxicity	cytotoxic effect (in words) ([1]; 0–1500 µM): no significant cytotoxic effects; cytotoxicity (in words) ([2]; 0–2000 µM): not causing a significant cytotoxicity; cytotoxicity (in words) ([3]; 0–2000 µM): not causing a significant cytotoxicity
